Assay results: ChEMBL document CHEMBL1201862, “PubChem BioAssay data set” (2004)
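Five compound concentrations were applied to cells in 96-well plates for 48 hours; endpoints were derived by simple linear interpolation of the resulting dose-response curve. Abbreviation: GI50, concentration required for 50% inhibition of growth.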 Activity calls are given as the source filed them. No stated cut-off is given here; in the data, active = GI50 up to about 1.1 µM and inactive = higher.

Tests used:
Test in all cases: inhibition of tumour cell growth, NCI panel, 48 h
A549 = system: A549
SK-MEL-5 = system: SK-MEL-5
KM12 = system: KM12
OVCAR-5 = system: OVCAR-5
UACC-62 = system: UACC-62
U-251 = system: U-251
UACC-257 = system: UACC-257
HOP-62 = system: HOP-62
UO-31 = system: UO-31
NCI-H522 = system: NCI-H522
RPMI-8226 = system: RPMI-8226
K562 = system: K562
OVCAR-8 = system: OVCAR-8
SF-268 = system: SF-268
SF-539 = system: SF-539
A498 = system: A498
HOP-92 = system: HOP-92
SW-620 = system: SW-620
SNB-19 = system: SNB-19
SR = system: SR

Measured: GI50

Cc1ccccc1NC(=O)CSc1nnc(Cc2ccccc2)o1
inactive: A549 > 100 µM | SK-MEL-5 > 100 µM | KM12 > 100 µM | OVCAR-5 > 100 µM | UACC-62 > 100 µM | U-251 > 100 µM | UACC-257 > 100 µM | HOP-62 > 100 µM | UO-31 > 100 µM | NCI-H522 > 100 µM | RPMI-8226 > 100 µM | K562 > 100 µM | OVCAR-8 > 100 µM | SF-268 > 100 µM | SF-539 > 100 µM

Nc1ccc2cc(S(=O)(=O)O)cc(O)c2c1/N=N/c1ccc(NC(=O)Nc2ccc(/N=N/c3c(N)ccc4cc(S(=O)(=O)O)cc(O)c34)c(S(=O)(=O)O)c2)cc1S(=O)(=O)O
inactive: A549 > 100 µM | SK-MEL-5 > 100 µM | KM12 > 100 µM | A498 > 100 µM | OVCAR-5 > 79.6 µM | UACC-62 > 100 µM | U-251 > 100 µM | UACC-257 > 100 µM | HOP-62 > 100 µM | HOP-92 > 54.8 µM | UO-31 > 100 µM | NCI-H522 > 100 µM | K562 > 100 µM | SW-620 > 100 µM | OVCAR-8 > 100 µM | SF-268 > 100 µM | SF-539 > 100 µM

O=c1oc(-c2ccc(O)c(O)c2)cc2cccc(O)c12 [THUNBERGINOL A]
inactive: A549 35.4 µM | SK-MEL-5 9.4 µM | KM12 11.4 µM | A498 19.9 µM | OVCAR-5 22 µM | UACC-257 22.6 µM | HOP-62 15.2 µM | HOP-92 2.07 µM | SNB-19 19.1 µM | UO-31 14.7 µM | NCI-H522 15.4 µM | RPMI-8226 10.5 µM | K562 22.1 µM | SW-620 21.1 µM | OVCAR-8 36.6 µM | SF-268 19.8 µM | SF-539 23.9 µM

Cn1nc(-c2ccccc2)c(C(=O)/C=C/c2ccccc2)c(N2CCCC2)c1=O
inactive: A549 19.9 µM | SK-MEL-5 15.3 µM | A498 11.4 µM | UACC-62 13.9 µM | U-251 12.9 µM | HOP-62 11.9 µM | HOP-92 1.64 µM | UO-31 21.4 µM | NCI-H522 4.83 µM | RPMI-8226 6.35 µM | K562 7.14 µM | SW-620 17.9 µM | OVCAR-8 16.9 µM | SF-268 13.7 µM | SF-539 13.2 µM

CC1(C)[C@H](C(=O)O)N2C(=O)[C@@H](NS(=O)(=O)c3ccc([N+](=O)[O-])cc3)[C@H]2S1(=O)=O
inactive: A549 > 100 µM | SK-MEL-5 > 100 µM | KM12 > 100 µM | A498 > 100 µM | OVCAR-5 > 100 µM | UACC-62 > 100 µM | U-251 > 100 µM | UACC-257 > 100 µM | HOP-62 > 100 µM | HOP-92 > 100 µM | SNB-19 > 100 µM | UO-31 > 100 µM | NCI-H522 > 100 µM | K562 > 100 µM | SW-620 > 100 µM | OVCAR-8 > 100 µM | SF-268 > 100 µM | SF-539 > 100 µM

c1ccc(C2N3CCCCC3[C@@H]3c4[nH]c5ccccc5c4CCN23)cc1 (some centres undefined)
inactive: A549 > 100 µM | SK-MEL-5 67.3 µM | A498 27 µM | OVCAR-5 > 100 µM | UACC-62 48.3 µM | U-251 > 100 µM | UACC-257 > 100 µM | HOP-62 > 100 µM | HOP-92 > 100 µM | SNB-19 > 100 µM | UO-31 70 µM | RPMI-8226 36.2 µM | K562 41.4 µM | SW-620 50.4 µM | OVCAR-8 > 100 µM | SF-268 > 100 µM | SF-539 > 100 µM

O=C(CCC(NC(=O)OCc1ccccc1)C(=O)OCc1ccccc1)Nc1cccc(OCc2ccccc2)c1 (centres undefined)
inactive: A549 35.7 µM | KM12 34.8 µM | OVCAR-5 28.6 µM | UACC-62 32.8 µM | U-251 30.3 µM | UACC-257 23.7 µM | HOP-62 28.6 µM | HOP-92 25 µM | SNB-19 51.3 µM | NCI-H522 18.7 µM | SR 18.5 µM | K562 24.2 µM | SW-620 33.6 µM | OVCAR-8 26.5 µM | SF-268 28.6 µM | SF-539 19.2 µM

COc1ccc2c(c1)[n+]([O-])c(C(C)=O)c(C)[n+]2[O-]
inactive: A549 > 100 µM | SK-MEL-5 > 100 µM | KM12 > 100 µM | OVCAR-5 > 100 µM | UACC-62 > 100 µM | U-251 > 100 µM | UACC-257 > 100 µM | HOP-62 > 100 µM | HOP-92 > 100 µM | SNB-19 > 100 µM | UO-31 > 100 µM | NCI-H522 > 100 µM | RPMI-8226 > 100 µM | K562 > 100 µM | SW-620 > 100 µM | OVCAR-8 > 100 µM | SF-268 > 100 µM | SF-539 > 100 µM

O=C(NC1CCCCC1)NC12CC3CC(CC(F)(C3)C1)C2
inactive: A549 > 100 µM | SK-MEL-5 > 100 µM | KM12 > 100 µM | A498 > 100 µM | OVCAR-5 > 100 µM | UACC-62 > 100 µM | U-251 > 100 µM | UACC-257 > 100 µM | HOP-62 > 100 µM | HOP-92 54.5 µM | SNB-19 > 100 µM | UO-31 55.3 µM | NCI-H522 > 100 µM | RPMI-8226 > 100 µM | K562 > 100 µM | SW-620 > 100 µM | OVCAR-8 > 100 µM | SF-539 > 100 µM

O=C1Oc2ccccc2C(=O)/C1=C\NC(=S)c1ccncc1
inactive: A549 > 100 µM | SK-MEL-5 > 100 µM | KM12 > 100 µM | OVCAR-5 > 100 µM | UACC-62 > 100 µM | U-251 > 100 µM | UACC-257 > 100 µM | HOP-62 84.1 µM | HOP-92 > 100 µM | SNB-19 96.8 µM | UO-31 45.7 µM | SW-620 11 µM | OVCAR-8 99.3 µM | SF-539 > 100 µM

COc1ccc2c(c1)-c1oc3ccccc3c(=O)c1CO2
inactive: A549 43 µM | SK-MEL-5 17.4 µM | KM12 39.5 µM | OVCAR-5 > 100 µM | UACC-62 38.1 µM | U-251 28.7 µM | UACC-257 31.8 µM | HOP-62 57.4 µM | UO-31 22.9 µM | NCI-H522 32.1 µM | RPMI-8226 20.8 µM | K562 65 µM | SW-620 28.2 µM | OVCAR-8 39.1 µM | SF-268 25 µM | SF-539 35.5 µM

COC(=O)C1CCC(=O)C(Sc2ccccc2)C1 (centres undefined)
inactive: A549 > 100 µM | SK-MEL-5 > 100 µM | KM12 > 100 µM | A498 > 100 µM | OVCAR-5 > 100 µM | UACC-62 80.7 µM | U-251 > 100 µM | UACC-257 83.8 µM | HOP-92 50.1 µM | SNB-19 > 100 µM | UO-31 21.2 µM | NCI-H522 52.7 µM | RPMI-8226 44.3 µM | K562 63.1 µM | SW-620 > 100 µM | OVCAR-8 > 100 µM | SF-268 59.8 µM | SF-539 > 100 µM
